Measurements reported in US20090042983A1, “Use of L-carnitine for the treatment of cardiovascular diseases” (Sigma-Tau Industrie Farmaceutiche Riunite S.p.A., priority 2003, published 2009).

How the values were obtained:
[1] = test system: acute myocardial infarction; conditions: 40 mg/kg/day (2.8 g/day); cited from earlier work
cardiac ischaemia = conditions: dogs, cardiac ischaemia model; cited from earlier work
[2] = test system: patients with acute myocardial infarction; conditions: 3 grams every 8 hours (9 grams a day) intravenous for 48 hours; symptoms within 8 hours; 351 patients; cited from earlier work
[3] = test system: patients with acute myocardial infarction; test: Multicentre double-blind placebo-controlled randomised clinical trial of L-carnitine on mortality (Example 1); type: in vivo, human
Protocol: A clinical trial was conducted in order to evaluate the effect of the administration of L-carnitine on the incidence of mortality and heart failure in the short and long term in patients with acute myocardial infarction. The acute myocardial infarction has not localized within a specific region of the organ but it could be located anywhere in the heart. The trial design was that of a multicentre, parallel-group, double-blind, placebo-controlled, randomised trial.
A total of 2,296 male and female patients aged below 80 years were recruited. The study compound, L-carnitine, was administered at a dose of 9 g/day i.v. for the first 5 days and 4 g/day by mouth from day 6 to day 180.
Concomitant therapies were given according to the procedures adopted in local clinical practice.
The efficacy endpoints of the trial consisted in the reduction of mortality and heart failure.
• Typical chest pain lasting>30 minutes, not resolved by the oral or intravenous administration of nitrates; • ECG with ST segment deviation≧0.2 mV in D, and aVL and/or in two or more contiguous precordial leads; • Time interval elapsing from onset of symptoms to trial randomisation<12 hours; • Age<80 years; • Written informed consent.
• Pregnancy or breast-feeding; • Haemodynamically significant valvulopathy; • Hypertrophic or dilated cardiomyopathy; • Congenital heart disease; • Clinically severe liver or kidney disease; • Alcohol abuse; • Other diseases associated with a poor life expectancy; • Conditions making poor compliance with treatment and/or periodic visits likely; • Inclusion in another trial.

[4] = test system: patients affected by anterior acute myocardial infarction; conditions: cited from earlier work
perfused heart = conditions: cited from earlier work

SMILES	difference between patients treated within 4 hours and more than 4 hours after onset of infarct symptoms [1]	cardiac lipid metabolism (cardiac ischaemia)	mortality vs control group at 7 days after the start of treatment [2]	NUMBER OF DEATHS AT: 1 mos ([3]; 9 g/day i.v. first 5 days, 4 g/day by mouth day 6 to 180, at 1 mos)	NUMBER OF DEATHS AT: 2 mos ([3]; 9 g/day i.v. first 5 days, 4 g/day by mouth day 6 to 180, at 2 mos)	NUMBER OF DEATHS AT: 6 mos ([3]; 9 g/day i.v. first 5 days, 4 g/day by mouth day 6 to 180, at 6 mos)	NUMBER OF DEATHS AT: 12 mos ([3]; 9 g/day i.v. first 5 days, 4 g/day by mouth day 6 to 180, at 12 mos)	RR (Relative Risk) of death at 1 mos ([3]; L-carnitine vs placebo, at 1 mos)	RR (Relative Risk) of death at 2 mos ([3]; L-carnitine vs placebo, at 2 mos)	RR (Relative Risk) of death at 6 mos ([3]; L-carnitine vs placebo, at 6 mos)	RR (Relative Risk) of death at 12 mos ([3]; L-carnitine vs placebo, at 12 mos)	reduction in deaths at the other observation times ([3]; vs placebo, 3 and 7 days, 1, 2, 6, 12 mos)	reduction in deaths after 5 days' treatment ([3]; vs placebo, after 5 days' treatment (P<0.05))	left ventricular dilation in the first year after infarction ([4]; anterior acute myocardial infarction)	deaths during the hospitalisation period ([4]; treated group, L-carnitine within 24 hours from onset of chest pain, 14 in control group, 472 patients in total)	lactate levels (perfused heart)	postischemic cardiac contraction amplitude (perfused heart)	release of LDH (perfused heart)	reserve of high-energy phosphate (perfused heart)	coronary flow (perfused heart; postischemic)
C[N+](C)(C)C[C@H](O)CC(=O)[O-] [L-carnitine]	no significant difference	active in improving cardiac lipid metabolism	no significant difference	45	53	64	67	0.78	0.81	0.86	0.89	significant reductions	statistically significant reduction in deaths	significant attenuation of left ventricular dilation	11					
C[N+](C)(C)C[C@H](O)CC(=O)[O-].O=C(O)/C=C/C(=O)O [L-carnitine fumarate]																lower lactate levels	greater	reduced release of LDH	higher reserve of high-energy phosphate	greater
